# From ChEMBL document CHEMBL1201862, “PubChem BioAssay data set” (2004)
# The source made the active and inactive calls.
# Tests used:
# cells [1] = type: functional, cell-based
# [2] = target: T1, Trace amine-associated receptor 1 (Homo sapiens, UniProt Q96RJ0); experiment: Fluorescence-based cell-based high throughput dose response assay to identify agonists of the human trace amine associated receptor 1 (TAAR1).; type: functional
# T1 sequence (Q96RJ0 whole entry): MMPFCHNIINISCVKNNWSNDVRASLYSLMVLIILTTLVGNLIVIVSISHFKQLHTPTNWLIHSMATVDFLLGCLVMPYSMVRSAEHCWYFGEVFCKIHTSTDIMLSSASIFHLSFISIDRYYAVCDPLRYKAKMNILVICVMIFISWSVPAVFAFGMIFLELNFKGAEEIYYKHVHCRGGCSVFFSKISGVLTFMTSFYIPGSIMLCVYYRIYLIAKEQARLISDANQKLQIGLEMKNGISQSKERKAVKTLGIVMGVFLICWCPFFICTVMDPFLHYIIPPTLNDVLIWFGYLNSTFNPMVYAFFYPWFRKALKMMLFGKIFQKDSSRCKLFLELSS
# [3] = viability of PTEN-deleted HCT116 cells – cell-based, HCT116 PTEN knockout, dose response (AID 1047); type: functional;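 note: HCT116 colon tumor cells with PTEN knocked out; cells exposed to compound for 60 hours before readout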
# [4] = viability loss of HPDE-C7K cells – cell-based, fluorescence, HTS, primary screen (AID 431); type: functional; conditions: Homo sapiens
# [5] = viability of HCT116 lacking mutant beta-catenin – cell-based, human colon tumor, dose response (AID 1045); type: functional;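 note: HCT116 colon tumor cells with beta catenin knocked out; cells exposed to compound for 60 hours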
# cells [6] = type: functional, cell-based; remark: listed apart in the source
# [7] = target: T1, Trace amine-associated receptor 1; experiment: Counterscreen for agonists of the human trace amine associated receptor 1 (hTAAR1): Fluorescence-based cell-based high throughput dose response assay to identify hTAAR1 agonist that also desensitize TAAR1 receptor response.; type: functional
# [8] = HPDE-C7 pancreatic duct cell viability loss – fluorescence, HTS (AID 430); type: functional, cell-based; conditions: Homo sapiens
# [9] = THP-1 cell cytotoxicity, dose response, cytotoxicity control for non-replicating M. tuberculosis project (AID 489025); type: functional
# [10] = Vero E6 cell cytotoxicity, dose response, cytotoxicity control for non-replicating M. tuberculosis project, secondary assay (AID 492998); type: functional, VeroE6; conditions: Vero C1008
# Albumin = Albumin (Bos taurus, UniProt P02769); experiment: Counterscreen for inhibitors of T-cell receptor (TCR)-CD3 interaction: Fluorescence-based biochemical high throughput dose response assay to identify inhibitors of T-cell receptor (TCR)-CD3 interaction using a TAMRA-labeled BSA probe.; type: functional
# Albumin, sequence (P02769 whole entry): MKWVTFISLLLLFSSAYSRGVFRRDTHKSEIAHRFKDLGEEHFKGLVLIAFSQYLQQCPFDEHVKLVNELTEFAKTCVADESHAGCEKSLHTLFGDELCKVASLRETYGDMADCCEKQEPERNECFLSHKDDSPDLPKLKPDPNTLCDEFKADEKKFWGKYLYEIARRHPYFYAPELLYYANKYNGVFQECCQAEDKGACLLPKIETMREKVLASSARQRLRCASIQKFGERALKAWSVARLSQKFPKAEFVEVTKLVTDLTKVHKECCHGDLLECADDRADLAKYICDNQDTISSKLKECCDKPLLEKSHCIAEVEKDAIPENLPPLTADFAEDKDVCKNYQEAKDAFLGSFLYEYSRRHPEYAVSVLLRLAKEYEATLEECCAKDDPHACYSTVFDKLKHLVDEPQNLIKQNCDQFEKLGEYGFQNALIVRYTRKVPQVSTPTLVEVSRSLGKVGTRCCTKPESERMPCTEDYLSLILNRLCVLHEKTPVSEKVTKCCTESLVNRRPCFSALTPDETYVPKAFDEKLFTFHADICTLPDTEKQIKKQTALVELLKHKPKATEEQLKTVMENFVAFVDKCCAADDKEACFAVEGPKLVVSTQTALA
# cells [11] = type: functional
# [12] = NIH-3T3 fibroblast cytotoxicity, dose response, cytotoxicity control, cell-based, fluorescence, Alamar Blue, secondary assay (AID 2327); type: functional;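 note: NIH-3T3 mouse fibroblasts cultured with fluconazole at 8 µg/mL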
# [13] = HepG2 cell cytotoxicity, dose response, cytotoxicity control for non-replicating M. tuberculosis project (AID 489018); type: functional; conditions: Mycobacterium tuberculosis
# [14] = fluconazole-exposed Candida albicans growth modulators – fluorescence, retest, confirmation (AID 2467); type: functional, cell-based
# Beta Lactamase [15] = target: T2, Beta Lactamase (Pseudomonas aeruginosa, UniProt Q932Y6); experiment: BLA reporter interference, concentration series – BLA reporter cells, FRET fluorescence, artefact control for TLR9-MyD88 binding inhibitor project, dose response (AID 588341); type: cell-based;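 note: cell based assay in CHO-K1 cells stably expressing beta-lactamase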
# T2 sequence (Q932Y6 whole entry, the tested form may be a part): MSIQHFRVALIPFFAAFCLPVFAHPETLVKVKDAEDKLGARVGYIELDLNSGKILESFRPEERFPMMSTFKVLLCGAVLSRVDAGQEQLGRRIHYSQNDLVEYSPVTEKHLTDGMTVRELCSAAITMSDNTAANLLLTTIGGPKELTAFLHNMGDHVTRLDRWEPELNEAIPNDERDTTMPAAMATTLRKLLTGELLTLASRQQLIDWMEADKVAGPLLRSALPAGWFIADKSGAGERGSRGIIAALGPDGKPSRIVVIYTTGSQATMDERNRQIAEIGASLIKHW
# CHO = CHO cell viability loss, potency – luminescence, cytotoxicity control for TLR9-MyD88 binding inhibitor project, dose response (AID 588339); type: functional, cell-based, hamster; conditions: Cricetulus griseus;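 note: CHO cells stably coexpressing TLR9 and MyD88 fusions from primary screen; compound exposure lasted 48 hours before viability readout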
# Protein Tat = target: T3, Protein Tat (Human immunodeficiency virus type 1 group M subtype B (isolate HXB2)(HIV-1), UniProt P04608); type: functional;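 note: tat binding to TAR RNA read out by fluorescence polarization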
# T3 sequence (P04608 whole entry): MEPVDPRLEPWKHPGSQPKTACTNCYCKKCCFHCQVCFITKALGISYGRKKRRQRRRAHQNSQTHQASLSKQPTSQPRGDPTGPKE
# [16] = Fluorescence-based cell-based high throughput dose response assay for inhibitors of the interaction of nucleotide-binding oligomerization domain containing 2 (NOD2) and the receptor-interacting serine-threonine kinase 2 (RIPK2).; type: functional; conditions: Homo sapiens
# Genome polyprotein = Genome polyprotein (dengue virus type 2, UniProt P29990); experiment: flavivirus cap methylation enzyme inhibition – biochemical, confirmation dose response, primary screen (AID 588689); type: functional
# Genome polyprotein, sequence (P29990 2492-3391 limits assumed): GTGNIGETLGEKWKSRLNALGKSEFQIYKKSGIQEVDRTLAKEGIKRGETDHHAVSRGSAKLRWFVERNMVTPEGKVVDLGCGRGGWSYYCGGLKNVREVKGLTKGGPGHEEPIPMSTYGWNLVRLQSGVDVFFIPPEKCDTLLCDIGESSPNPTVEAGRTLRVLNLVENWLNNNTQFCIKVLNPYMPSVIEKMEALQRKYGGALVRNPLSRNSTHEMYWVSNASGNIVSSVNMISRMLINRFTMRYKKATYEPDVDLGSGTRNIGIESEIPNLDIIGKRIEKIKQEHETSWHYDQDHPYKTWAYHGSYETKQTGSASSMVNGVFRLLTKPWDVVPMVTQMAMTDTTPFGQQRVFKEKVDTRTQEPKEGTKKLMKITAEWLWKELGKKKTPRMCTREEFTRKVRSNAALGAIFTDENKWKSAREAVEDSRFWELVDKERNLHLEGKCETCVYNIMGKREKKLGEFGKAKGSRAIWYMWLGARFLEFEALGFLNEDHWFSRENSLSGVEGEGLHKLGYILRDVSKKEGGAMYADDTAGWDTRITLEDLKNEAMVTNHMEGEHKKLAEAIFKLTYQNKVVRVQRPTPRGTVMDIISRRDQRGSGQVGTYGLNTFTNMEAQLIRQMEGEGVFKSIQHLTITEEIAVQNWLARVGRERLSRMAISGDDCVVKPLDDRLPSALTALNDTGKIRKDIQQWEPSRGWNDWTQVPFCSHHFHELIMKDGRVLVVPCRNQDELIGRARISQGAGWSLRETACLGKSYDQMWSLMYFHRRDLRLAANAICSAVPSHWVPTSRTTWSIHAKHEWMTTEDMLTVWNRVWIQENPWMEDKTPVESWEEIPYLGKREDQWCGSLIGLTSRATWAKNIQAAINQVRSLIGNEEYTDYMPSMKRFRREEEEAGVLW
# Beta Lactamase [17] = target: T2, Beta Lactamase; experiment: BLA reporter interference, concentration series – BLA reporter cells, FRET fluorescence, artefact control for NOD2-RIPK2 interaction inhibitor project, dose response (AID 651552); type: functional, cell-based
# [18] = viability loss in THP-1 monocytes – THP-1 cells, cytotoxicity control for Vif-APOBEC3G degradation inhibitor project, dose response (AID 1117359); type: functional; conditions: THP-1
# Vero = experiment: viability of Vero cells under compound – cytotoxicity control for flavivirus capping enzyme inhibitors (AID 588742); type: functional; conditions: Chlorocebus sabaeus
# [19] = target: Glucose-6-phosphate 1-dehydrogenase (Homo sapiens, UniProt P11413); experiment: inhibition of Homo sapiens G6PD, dose series – biochemical, fluorescence, selectivity assay for P. falciparum G6PD inhibitor project, dose response (AID 504792); type: functional
# Glucose-6-phosphate 1-dehydrogenase, sequence (P11413 whole entry): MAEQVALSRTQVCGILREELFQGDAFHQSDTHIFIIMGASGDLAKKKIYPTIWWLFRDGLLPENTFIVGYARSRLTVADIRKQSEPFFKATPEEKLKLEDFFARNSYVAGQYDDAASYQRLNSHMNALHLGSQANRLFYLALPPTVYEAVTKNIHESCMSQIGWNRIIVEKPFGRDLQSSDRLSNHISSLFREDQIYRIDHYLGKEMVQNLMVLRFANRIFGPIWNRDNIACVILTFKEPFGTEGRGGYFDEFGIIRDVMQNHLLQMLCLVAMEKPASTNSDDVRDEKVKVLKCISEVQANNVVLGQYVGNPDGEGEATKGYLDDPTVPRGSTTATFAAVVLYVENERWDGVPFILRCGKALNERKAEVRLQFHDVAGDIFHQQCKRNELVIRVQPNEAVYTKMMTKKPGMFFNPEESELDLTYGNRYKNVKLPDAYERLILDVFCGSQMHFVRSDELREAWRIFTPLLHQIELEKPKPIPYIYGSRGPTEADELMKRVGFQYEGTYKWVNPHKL
# Beta-galactosidase = Beta-galactosidase (Escherichia coli, UniProt Q8VNN2); experiment: detection-enzyme interference by beta-gal modulators – biochemical, E. coli enzyme, set 3, artefact control for CCR6 antagonist project, dose response (AID 504712); type: functional
# Beta-galactosidase, sequence (Q8VNN2 whole entry): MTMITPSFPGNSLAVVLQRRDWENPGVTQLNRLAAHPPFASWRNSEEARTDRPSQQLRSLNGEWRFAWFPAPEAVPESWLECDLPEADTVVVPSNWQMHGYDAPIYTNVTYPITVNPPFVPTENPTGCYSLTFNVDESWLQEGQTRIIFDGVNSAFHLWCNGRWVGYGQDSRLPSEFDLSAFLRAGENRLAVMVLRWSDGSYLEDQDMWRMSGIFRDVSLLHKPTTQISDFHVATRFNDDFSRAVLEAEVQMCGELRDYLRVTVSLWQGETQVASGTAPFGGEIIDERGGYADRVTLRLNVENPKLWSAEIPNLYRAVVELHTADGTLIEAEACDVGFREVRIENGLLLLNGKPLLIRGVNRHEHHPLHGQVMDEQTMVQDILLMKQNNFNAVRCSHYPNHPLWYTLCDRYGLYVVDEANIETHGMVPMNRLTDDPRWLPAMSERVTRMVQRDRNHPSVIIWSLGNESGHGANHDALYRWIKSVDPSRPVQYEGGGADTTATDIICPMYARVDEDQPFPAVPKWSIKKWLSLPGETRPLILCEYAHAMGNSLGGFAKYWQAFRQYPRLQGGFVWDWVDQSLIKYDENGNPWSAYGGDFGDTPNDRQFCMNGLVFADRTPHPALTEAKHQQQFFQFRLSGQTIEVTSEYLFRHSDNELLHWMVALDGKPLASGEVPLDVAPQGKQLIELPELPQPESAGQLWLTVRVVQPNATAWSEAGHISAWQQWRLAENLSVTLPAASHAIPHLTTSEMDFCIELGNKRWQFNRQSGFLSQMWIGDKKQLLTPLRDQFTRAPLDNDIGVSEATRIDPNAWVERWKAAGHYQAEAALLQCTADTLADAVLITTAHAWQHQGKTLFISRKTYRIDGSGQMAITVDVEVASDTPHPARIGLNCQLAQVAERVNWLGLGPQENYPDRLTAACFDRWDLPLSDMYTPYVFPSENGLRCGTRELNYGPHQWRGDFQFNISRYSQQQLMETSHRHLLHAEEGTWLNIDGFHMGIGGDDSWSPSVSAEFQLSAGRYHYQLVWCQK
# Paired box protein Pax-8 = Paired box protein Pax-8 (Homo sapiens, UniProt Q06710); experiment: PAX8 transcriptional activity inhibition in RMG-I – RMG-I cells, luciferase, cherry-pick, dose response (AID 687027); type: functional, cell-based;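 note: luciferase reporter driven by Pax8 target thyroperoxidase promoter measured by SteadyGlo luminescence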
# Paired box protein Pax-8, sequence (Q06710 whole entry): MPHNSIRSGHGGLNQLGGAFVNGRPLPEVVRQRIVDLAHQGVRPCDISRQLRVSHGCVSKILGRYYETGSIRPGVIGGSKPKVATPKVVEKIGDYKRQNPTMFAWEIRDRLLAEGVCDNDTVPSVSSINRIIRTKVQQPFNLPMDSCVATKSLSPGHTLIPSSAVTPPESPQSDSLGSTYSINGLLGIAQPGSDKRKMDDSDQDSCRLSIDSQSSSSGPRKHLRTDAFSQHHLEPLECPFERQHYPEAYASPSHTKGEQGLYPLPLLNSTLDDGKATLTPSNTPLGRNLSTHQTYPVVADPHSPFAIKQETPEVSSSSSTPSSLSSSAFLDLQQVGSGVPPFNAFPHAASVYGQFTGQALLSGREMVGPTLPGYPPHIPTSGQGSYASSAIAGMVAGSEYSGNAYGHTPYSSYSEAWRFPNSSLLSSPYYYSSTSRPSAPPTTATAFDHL
# [20] = target: Heat shock protein HSP 90-alpha (Homo sapiens, UniProt P07900); type: functional, organism-based
# [21] = general cell-killing toxicity readout – plate reader, dry powder samples, cytotoxicity control for PAX8 inhibitor project, dose response (AID 743021); type: functional, cell-based
# [22] = human cervical cancer cell viability loss – 24 h, plate reader, dry powder, cytotoxicity control, dose response (AID 686928); type: functional, cell-based; conditions: HeLa
# [23] = NIH3T3 cell viability loss – ATP luminescence, mouse fibroblasts, counter-screen, dose response (AID 2010); type: functional, cell-based;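 note: cells exposed to compound for about 90 hours before reading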
# Streptococcus = experiment: GAS UMAA2166 growth inhibition – luminescence, BacTiterGlo, counter-screen for streptokinase expression inhibitor project, dose response (AID 1915); type: functional, organism-based;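 note: potency for reduction of bacterial viability or growth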
# Streptokinase A = target: T4, Streptokinase A (Streptococcus pyogenes serotype M1, UniProt P10520); experiment: viability-normalized secreted streptokinase activity reduction – plasminogen activation absorbance, OD405, dose response (AID 1914); type: functional, Streptococcus pyogenes M1 GAS;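 note: secreted streptokinase activity via plasminogen activation per viability signal from cell pellet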
# T4 sequence (P10520 whole entry): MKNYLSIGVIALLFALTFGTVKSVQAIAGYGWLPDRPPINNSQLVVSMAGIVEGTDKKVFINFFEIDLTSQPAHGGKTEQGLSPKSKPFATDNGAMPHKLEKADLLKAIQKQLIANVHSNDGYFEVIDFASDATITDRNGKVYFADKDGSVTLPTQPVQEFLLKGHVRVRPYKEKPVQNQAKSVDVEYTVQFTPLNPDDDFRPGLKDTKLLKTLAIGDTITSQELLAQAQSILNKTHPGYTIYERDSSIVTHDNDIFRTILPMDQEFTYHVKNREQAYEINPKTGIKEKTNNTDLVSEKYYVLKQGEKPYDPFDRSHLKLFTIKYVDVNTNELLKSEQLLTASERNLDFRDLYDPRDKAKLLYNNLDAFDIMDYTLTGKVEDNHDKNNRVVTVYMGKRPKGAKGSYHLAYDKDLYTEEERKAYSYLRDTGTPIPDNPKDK
# [24] = test system: Streptococcus sp. 'group A'; experiment: Streptococcus pyogenes SK(-)GAS viability under kanamycin – luminescence, BacTiterGlo, confirmation, counter-screen for streptokinase expression inhibitor project, dose response (AID 1900); type: functional, organism-based
# [25] = Trypanosoma cruzi growth suppression in host cells – NIH3T3 host cells, beta-gal luminescence, confirmation (AID 2044); type: functional, cell-based;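 note: intracellular parasites grown in NIH/3T3 mouse fibroblasts as host cells; luminescent beta-galactosidase reporter signal from transgenic T. cruzi replicating inside host cells; inhibitors lower the luminescence signal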
# INS1 = experiment: INS-1E survival protection against cytokine death – cell-based, luminescence, retest, dose response (AID 449756); type: functional; conditions: Rattus norvegicus;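 note: cell death triggered by IL-1 beta plus TNF-alpha plus IFN-gamma mixture; protective hits raise ATP signal compared with cytokine alone wells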
smiles,measurement,setting,value
O=C(CCN1CCC(c2ccccc2)C1)c1cccs1 (stereo unspecified),EC50,cells [1],> 29.9 µM (inactive)
same,EC50,[2],0.157 µM (active)
same,EC50,[3],34.1 µM (active)
same,EC50,[4],> 20 µM (not active)
same,EC50,[5],29.3 µM (active)
same,IC50,cells [6],> 29.9 µM (inactive)
same,IC50,[7],1.49 µM (active)
same,EC50,[8],> 20 µM (not active)
CCCCC(CC)CNC(=O)C1C2C=CC(C2)C1C(=O)O (stereo unspecified),EC50,cells [1],> 29.9 µM (inactive)
same,EC50,[2],> 29.9 µM (inactive)
same,IC50,cells [6],> 29.9 µM (inactive)
same,IC50,[7],> 29.9 µM (inactive)
COc1ccc(C(=O)NNC(=S)NC(=O)c2cccc([N+](=O)[O-])c2)cc1,CC50,[9],19.3 µM (active)
same,CC50,[10],17.9 µM (active)
same,IC50,Albumin,> 94.1 µM (inactive)
same,IC50,cells [11],18.9 µM (active)
same,EC50,[12],> 160 µM (inactive)
same,CC50,[13],> 20 µM (active)
same,EC50,[14],2.63 µM (active)
CC1=C(O)C(=O)C=C2C1=CC=C1C2(C)CCC2(C)C3CC(C)(C(=O)O)CCC3(C)CCC12C (stereo unspecified),IC50,Beta Lactamase [15],21.4 µM (inactive)
same,IC50,CHO,0.619 µM (active)
same,IC50,Protein Tat,> 100 µM (active)
same,IC50,[16],0.205 µM (active)
same,IC50,Genome polyprotein,19.7 µM (active)
same,IC50,Beta Lactamase [17],38.1 µM (inactive)
same,CC50,[18],1.01 µM (active)
same,CC50,Vero,1.43 µM (active)
same,IC50,[19],> 80 µM (inactive)
same,IC50,Beta-galactosidase,> 66.6 µM (inactive)
same,AC50,Paired box protein Pax-8,2.41 µM (active)
same,AC50,[20],1.41 µM (active)
same,AC50,[21],26.1 µM (active)
Cc1cc2cc3c(NC(=O)c4ccco4)nn(C)c3nc2cc1C,AC50,[22],147 µM (active)
O=C1C(=O)N(Cc2cccc(Cl)c2)c2ccccc21,AC50,[22],124 µM (active)
C/C(=N\NC(=O)c1nnn(-c2nonc2N)c1CN(C)c1ccccc1)c1ccccc1O,EC50,[23],5.57 µM (active)
same,EC50,Streptococcus,5.74 µM (active)
same,IC50,Albumin,> 94.1 µM (inactive)
same,EC50,Streptokinase A,> 150 µM (not active)
same,EC50,[24],5.37 µM (active)
same,EC50,[25],0.403 µM (active)
same,AC50,INS1,2.15 µM (active)
